Test results published in PubChem BioAssay AID330 (DTP/NCI, 2004).
Values joined by “and” are separate entries in the source; they are usually repeats but may differ in a detail not shown here. Identical values can stand only once. Inconclusive results and toxic doses are left out.

Test system: P388 leukemia ip, CD2F1 mice, survival T/C
Experiment: NCI In Vivo Anticancer Drug Screen. Data for tumor model P388 Leukemia (intraperitoneal) in CD2F1 (CDF1) mice
Conditions: endpoint: median survival time, higher = longer survival
Summary of the method: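 Mice carrying the transplanted tumor received test compound or vehicle. Survival was recorded in each group, and the value is the treated-group measurement divided by that of the vehicle-treated control group.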

[1] = dose: 6.25 mg/kg/injection, schedule: Q01DX005 (ip), vehicle: Klucel (hydroxypropylcellulose) (HPC)
[2] = dose: 12.5 mg/kg/injection, schedule: Q01DX005 (ip), vehicle: Klucel (hydroxypropylcellulose) (HPC)
[3] = dose: 25.0 mg/kg/injection, schedule: Q01DX005 (ip), vehicle: Klucel (hydroxypropylcellulose) (HPC)
[4] = dose: 50.0 mg/kg/injection, schedule: Q01DX005 (ip), vehicle: Klucel (hydroxypropylcellulose) (HPC)
[5] = dose: 100.0 mg/kg/injection, schedule: Q01DX005 (ip), vehicle: Klucel (hydroxypropylcellulose) (HPC)
[6] = dose: 200.0 mg/kg/injection, schedule: Q01DX005 (ip), vehicle: Klucel (hydroxypropylcellulose) (HPC)
[7] = dose: 100.0 mg/kg/injection, schedule: Q01DX001 (ip), vehicle: saline with Tween-80
[8] = dose: 200.0 mg/kg/injection, schedule: Q01DX001 (ip), vehicle: saline with Tween-80
[9] = dose: 400.0 mg/kg/injection, schedule: Q01DX001 (ip), vehicle: saline with Tween-80

## O=C1/C(=C/c2ccc(Cl)cc2)SC(=S)N1C1CC1
[1]
  T/C: 91 % of control
[2]
  T/C: 96 % of control
[3]
  T/C: 95 % of control
[4]
  T/C: 89 % of control

## CC1CN=C(NS(=O)(=O)c2ccccc2)N1 (centres undefined)
dose: 50.0 mg/kg/injection, schedule: Q01DX009 (ip), vehicle: saline
  T/C: 101 % of control
dose: 100.0 mg/kg/injection, schedule: Q01DX009 (ip), vehicle: saline
  T/C: 93 % of control
dose: 200.0 mg/kg/injection, schedule: Q01DX009 (ip), vehicle: saline
  T/C: 92 % of control

## CC(C)(C)B1N(c2ccccc2)N=NN1C(C)(C)C
dose: 60.0 mg/kg/injection, schedule: Q01DX005 (ip), vehicle: saline
  T/C: 100 % of control
dose: 120.0 mg/kg/injection, schedule: Q01DX005 (ip), vehicle: saline
  T/C: 99 % of control and 88 % of control
dose: 240.0 mg/kg/injection, schedule: Q01DX005 (ip), vehicle: saline
  T/C: 96 % of control and 98 % of control

## CC(=O)Cc1ccc(C)cc1
dose: 100.0 mg/kg/injection, schedule: Q04DX003 (ip), vehicle: saline with Tween-80
  T/C: 104 % of control
dose: 200.0 mg/kg/injection, schedule: Q04DX003 (ip), vehicle: saline with Tween-80
  T/C: 104 % of control
dose: 400.0 mg/kg/injection, schedule: Q04DX003 (ip), vehicle: saline with Tween-80
  T/C: 104 % of control

## Nc1cc2c(c[n+](CCO)c3ccccc23)c2ccccc12
dose: 12.5 mg/kg/injection, schedule: Q04DX003 (ip), vehicle: other
  T/C: 118 % of control
dose: 25.0 mg/kg/injection, schedule: Q04DX003 (ip), vehicle: other
  T/C: 111 % of control
dose: 50.0 mg/kg/injection, schedule: Q04DX003 (ip), vehicle: other
  T/C: 118 % of control
dose: 100.0 mg/kg/injection, schedule: Q04DX003 (ip), vehicle: other
  T/C: 102 % of control

## COc1ccc(/C(C#N)=C/c2cc(OC)c(OC)c(OC)c2)cc1
[4]
  T/C: 105 % of control
[5]
  T/C: 97 % of control
[6]
  T/C: 101 % of control

## CCC(C)C1NC(=O)C(NC(=O)c2c3nc4c(C(=O)NC5C(=O)NC(C(C)CC)C(=O)N6CCCC6C(=O)N(C)CC(=O)N(C)C(C(C)C)C(=O)OC5C)cc([N+](=O)[O-])c(C)c4oc-3c(C)c(=O)c2N)C(C)OC(=O)C(C(C)C)N(C)C(=O)CN(C)C(=O)C2CCCN2C1=O (centres undefined)
dose: 0.2 mg/kg/injection, schedule: Q01DX009 (ip), vehicle: Klucel (hydroxypropylcellulose) (HPC)
  T/C: 168 % of control
dose: 0.4 mg/kg/injection, schedule: Q01DX009 (ip), vehicle: Klucel (hydroxypropylcellulose) (HPC)
  T/C: 228 % of control
dose: 0.4 mg/kg/injection, schedule: Q01DX009 (ip), vehicle: water
  T/C: 169 % of control
dose: 0.6 mg/kg/injection, schedule: Q01DX009 (ip), vehicle: water
  T/C: 193 % of control
dose: 0.8 mg/kg/injection, schedule: Q01DX009 (ip), vehicle: Klucel (hydroxypropylcellulose) (HPC)
  T/C: 92 % of control

## Cc1ccc(O)c2c(NCCCCCCNc3cc(C)[n+](C)c4c(C)ccc(O)c34)cc(C)[n+](C)c12
dose: 12.5 mg/kg/injection, schedule: Q01DX005 (ip), vehicle: saline with Tween-80
  T/C: 99 % of control
dose: 25.0 mg/kg/injection, schedule: Q01DX005 (ip), vehicle: saline with Tween-80
  T/C: 112 % of control
dose: 50.0 mg/kg/injection, schedule: Q01DX005 (ip), vehicle: saline with Tween-80
  T/C: 92 % of control

## OCc1cc2ccccc2c2c1OCCOCCOCCOCCOCCOc1ccc3ccccc3c1-2
dose: 100.0 mg/kg/injection, schedule: Q04DX002 (ip), vehicle: saline with Tween-80
  T/C: 104 % of control
dose: 200.0 mg/kg/injection, schedule: Q04DX002 (ip), vehicle: saline with Tween-80
  T/C: 99 % of control
dose: 400.0 mg/kg/injection, schedule: Q04DX002 (ip), vehicle: saline with Tween-80
  T/C: 107 % of control

## O=c1oc2ccc(Cl)cc2c(=O)n1-c1cc(Cl)ccc1[N+](=O)[O-]
dose: 50.0 mg/kg/injection, schedule: Q01DX005 (ip), vehicle: saline
  T/C: 100 % of control
dose: 100.0 mg/kg/injection, schedule: Q01DX005 (ip), vehicle: saline
  T/C: 99 % of control
dose: 200.0 mg/kg/injection, schedule: Q01DX005 (ip), vehicle: saline
  T/C: 104 % of control

## O=C(O)Cc1cn2cc(Br)cc(Br)c2n1
[7]
  T/C: 109 % of control
[8]
  T/C: 97 % of control
[9]
  T/C: 98 % of control

## O=C1NC(=O)c2ccc3c4ccc5c6c(ccc(c7ccc1c2c73)c64)C(=O)N(c1ccccc1)C5=O
[1]
  T/C: 99 % of control
[2]
  T/C: 101 % of control and 94 % of control
[3]
  T/C: 107 % of control
[4]
  T/C: 93 % of control
[5]
  T/C: 95 % of control
[6]
  T/C: 88 % of control

## O=C(NNC(=S)Nc1ccccc1)c1ccncc1
dose: 50.0 mg/kg/injection, schedule: Q01DX009 (ip), vehicle: saline with Tween-80
  T/C: 107 % of control
dose: 100.0 mg/kg/injection, schedule: Q01DX009 (ip), vehicle: saline with Tween-80
  T/C: 107 % of control
dose: 200.0 mg/kg/injection, schedule: Q01DX009 (ip), vehicle: saline with Tween-80
  T/C: 107 % of control

## CCOC(=O)C(/C=N/NC(N)=S)CC (centres undefined)
[7]
  T/C: 100 % of control
[8]
  T/C: 99 % of control
[9]
  T/C: 97 % of control
